In data set [1] the target is T1, hPTPRM (Homo sapiens, UniProt P28827).
T1 construct: Recombinant proteins corresponding to the entire intracellular regions (ICRs) of PTPRZ1, PTPRA, and PTPRM; made in house; host or cells: baculovirus-silkworm expression system
Nature of the data set: In vitro PTPase assay (DiFMUP), PTPRM. The data set is classed as biochemical. Conditions: 60-min preincubation. Here is the method: Figure 4 NAZ2329, an allosteric inhibitor of R5 RPTP subfamily members. (A) Structure of NAZ2329. (B) Effect of preincubation of NAZ2329 on its inhibitory activity against PTPRZ. Recombinant human PTPRZ1 enzyme (the whole intracellular region) was premixed with NAZ2329 for the indicated times and followed by addition of a fluorogenic DiFMUP (non-specific PTP substrate, 6,8-difluoro-4-methylumbiliferyl phosphate) to measure PTP inhibitory activity. (C) Time dependence. The PTPRZ1 enzyme was added to the inhibitor–substrate mixture, and the inhibitory activity was determined at each time point relative to the vehicle control. (D) Reversibility of inhibition. […] The mixture was then 20-fold diluted, and recovered PTP activity was expressed as the relative activity compared with the vehicle-treated enzyme. […] PTPRZ1 enzymes were preincubated with NAZ2329 for 60 min, and the PTP activity was measured using DiFMUP. […]
Recombinant proteins corresponding to the entire intracellular regions (ICRs) of PTPRZ1, PTPRA, and PTPRM were expressed using a baculovirus-silkworm expression system, and purified as described. The ICRs of PTPRG, PTPRS, and PTPRB and the catalytic domains of PTPN1 and PTPN6 were expressed as glutathione-S-transferase (GST) fusion proteins from each pGEX plasmid in Escherichia coli strain BL21 (ref. [6]). […]

Data set [2] has as its system oligodendrocyte precursor OL1 cells. In words: OL1 oligodendrocyte differentiation assay. The data set is classed as cell-based, mouse. Conditions: 10 days in differentiation media. How it is done: Figure 6 Effects of NAZ2329 treatment on oligodendrocyte differentiation. Mouse oligodendrocyte-lineage OL1 cells were cultured in differentiation media containing the indicated concentrations of NAZ2329. After 10 days, cells were fixed with formalin and stained with anti-NG2 proteoglycan (oligodendrocyte precursor cells, red) and anti-MBP (oligodendrocyte, green) antibodies, in conjunction with the DAPI-labeling of nuclei (blue). Scale bars, 100 µm.
The preparation of mouse oligodendrocyte-lineage OL1 cells was described previously. […] On the 10th day of the culture, differentiation from oligodendrocyte precursor cells to oligodendrocytes was assessed was described previously[14]–[16]. Briefly, cells were fixed and stained with anti-NG2 (a specific marker for oligodendrocyte precursor cells) and anti-MBP (a marker for matured oligodendrocytes), and the observed with a standard fluorescence microscope (Biozero BZ8000, Keyence). Differentiation from oligodendrocyte precursor cells to oligodendrocytes was expressed as the ratio of MBP-positive cells to NG2-positive cells.

A short description of data set [3]: Plasma and brain levels after intraperitoneal injection. It counts as in vivo, C57BL6 mice. Conditions: for concentration at 1 h: mouse, ip, C57BL6 mice, 1 h after i.p. 30 mg/kg, two female mice. From the text:
NAZ2329 successfully suppresses the cell proliferation and cell migration of the differentiated glioblastoma cells, as well as cell sphere formation (Figs 7 to 8). NAZ2329 is the first cell-permeable R5 RPTP inhibitor. […] Nevertheless, NAZ2329 is a potentially valuable lead therapeutic for the development of drugs that function through allosteric inhibitory mechanisms against PTPs, such as PTPRZ and PTPRG.

Each structure is given as a SMILES string. Read-outs that look alike come from different tables or passages of the source.

This is an account of results in PMC5514153, “Targeting PTPRZ inhibits stem cell-like properties and tumorigenicity in glioblastoma cells” (Scientific Reports, 2017).

T1 sequence (P28827 765-1452 limits assumed): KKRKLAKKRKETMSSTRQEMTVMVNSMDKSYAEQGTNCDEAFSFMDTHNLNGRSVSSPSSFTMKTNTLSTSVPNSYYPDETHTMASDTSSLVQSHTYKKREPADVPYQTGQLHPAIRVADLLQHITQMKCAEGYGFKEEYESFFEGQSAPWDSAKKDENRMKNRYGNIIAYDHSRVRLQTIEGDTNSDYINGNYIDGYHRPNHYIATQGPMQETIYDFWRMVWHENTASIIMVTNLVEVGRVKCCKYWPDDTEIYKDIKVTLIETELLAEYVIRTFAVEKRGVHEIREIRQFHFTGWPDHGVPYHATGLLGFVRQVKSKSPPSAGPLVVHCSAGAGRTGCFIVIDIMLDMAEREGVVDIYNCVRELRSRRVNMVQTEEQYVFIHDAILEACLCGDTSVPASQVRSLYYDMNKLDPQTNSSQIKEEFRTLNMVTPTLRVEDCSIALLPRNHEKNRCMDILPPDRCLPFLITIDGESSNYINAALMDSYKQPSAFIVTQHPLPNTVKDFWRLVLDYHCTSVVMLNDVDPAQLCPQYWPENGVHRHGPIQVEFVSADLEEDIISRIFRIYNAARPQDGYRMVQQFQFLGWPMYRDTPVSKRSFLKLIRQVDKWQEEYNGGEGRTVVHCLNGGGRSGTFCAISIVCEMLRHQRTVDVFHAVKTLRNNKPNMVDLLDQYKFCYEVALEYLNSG

One may read the IC50 as the concentration at which inhibition is half-maximal. Turning to `CCOc1ccc(C(F)(F)F)cc1CSc1ccsc1C(=O)NS(=O)(=O)c1ccccc1` [NAZ2329], the 50% inhibitory concentration (IC50) in data set [1] worked out at 56.7 µM. In addition, the “differentiation of OL1 cells to mature oligodendrocytes (MBP-positive/NG2-positive ratio)” value in data set [2] is reported as “dose-dependently induced the differentiation”. In data set [3] (from plasma and brain levels 1 h after i.p. 30 mg/kg), the BBB permeability result is “poor BBB permeability”. Moreover, the concentration at 1 h in data set [3] (brain, read-out: average level in brain) is 300 ng/g; in data set [3] (plasma, read-out: average level in plasma) it was 22000 ng/mL.
